From patent publication US4472386A, “5-Fluoro-(β-uridine or 2'-deoxy-β-uridine) derivatives, a process for producing the same and a carcinostatic agent containing the same” (Toyama Chemical Co., Ltd., priority 1978, dated 1984)
Like-named read-outs stand apart in the source and are kept apart here.

Key:
SLC-ddY mice = conditions: mouse, in vivo
From the text: (a) The test compound was suspended in 0.25% CMC solution and administered intraperitoneally to SLC-ddY mice (5 weeks old, male, 6 mice per group). The number of dead mice was counted over the subsequent three weeks.

[1] = Acute toxicity test (b), oral LD50 (Table 4); conditions: mouse, in vivo
Procedure: (b) The test compound was suspended in 0.25% CMC solution and administered orally to SLC-ddY mice (5 weeks old, male, 6 mice per group). The number of dead mice was counted over the subsequent 3 weeks. LD50 value was calculated according to the method of Van der Waerden.

[2] = test system: Ehrlich ascites carcinoma; experiment: Carcinostatic test, oral, ED values (Table 5); format: in vivo, ddY mice; conditions: Mus musculus, 336 h
Procedure: Ehrlich ascites carcinoma was subcutaneously inoculated into the right inguinal region of ddY mice (5 weeks old, male, 8 mice per group) with 8×10^6 cells per mouse. Twenty four hours after the inoculation,5, 10, 20 or 40 mg/kg of a test drug suspended or dissolved in polyethylene glycol was administered orally to the test group successively once daily for 10 days, while the same quantity as above of 10% polyethylene glycol was administered orally to the control group. Fourteen days after the inoculation, the tumor was excised and weighed, from which the average tumor weight ratio between the test group and the control group (T/C) was calculated. ED value was determined by the least square method.

[3] = test system: Ehrlich ascites carcinoma; experiment: Inhibition of Ehrlich solid tumor in mice, oral administration starting six days after inoculation (Table 2); format: in vivo, ddY mice; conditions: for T/C (average tumor weight ratio between test group and control group): day 21
Procedure: (§1) 1. Experiment on the inhibition of Ehrlich solid tumor
Ehrlich ascites carcinoma was subcutaneously inoculated into the inguinal region of ddY mice (5 weeks old, male, 8 mice per group) with 3×10^6 cells per mouse. Six days after the inoculation, a test drug dissolved or suspended in 0.5% CMC solution was administered orally to the test group successively once daily for 10 days, while the same quantity as above of 0.5% CMC solution was orally administered to the control group. Twenty one days after the inoculation, the tumor was excised and weighed, from which the average tumor weight ratio between the test group and the control group (T/C) was determined.

[4] = test system: Ehrlich ascites carcinoma; experiment: Inhibition of Ehrlich solid tumor in mice, intraperitoneal administration (Table 1); format: in vivo, ddY mice; set-up: response vs control in vivo: dose or concentration left out as unconfirmed; conditions: for response vs control in vivo: day 14
Procedure: as §1
Ehrlich ascites carcinoma was subcutaneously inoculated into the right inguinal region of ddY mice (5 weeks old, male, 8 mice per group) with 3×10^6 cells per mouse.
24 Hours after the inoculation, a test drug suspended or dissolved in 5% HCO 60 (a product manufactured by Nikkol) was administered intraperitoneally successively once daily for 7 days. To the control group, the same quantity as above of 5% HCO 60 was intraperitoneally administered in the same manner. Fourteen days after the inoculation, the tumor was excised and weighed, from which the average tumor weight ratio between the test group and the control group (T/C) was determined.

[5] = test system: Sarcoma-180 ascites tumor; experiment: Inhibition of Sarcoma-180 ascites tumor in mice, intravenous administration (Table 3); format: in vivo, ddY mice; conditions: for T/C (average tumor weight ratio between test group and control group): Sarcoma-180, day 10
Procedure: 2. Experiment on the inhibition of Sarcoma-180 ascites tumor
Sarcoma-180 ascites tumor was subcutaneously inoculated into the right inguinal region of ddY mice (5 weeks old, male, 8 mice per group) with 3×10^6 cells per mouse. Twenty four hours after the inoculation,a test drug dissolved in 10% polyethylene glycol was administered intravenously to the test group successively once daily for 7 days, while the same quantity as above of 10% polyethylene glycol was intravenously administered to the control group. Ten days after the inoculation, the tumor was excised and weighed, from which the average tumor weight ratio between the test group and the control group (T/C) was determined.

[6] = 60 mg/kg orally once daily for 10 days
[7] = 60 mg/kg orally once daily for 10 days from day 6, Ehrlich
[8] = 40 mg/kg i.p. once daily for 7 days
[9] = Mus musculus, ip, 336 h, Ehrlich, read-out: T/C (average tumor weight ratio between test group and control group)
[10] = 10 mg/kg i.v. once daily for 7 days
[11] = oral, 3 weeks, Van der Waerden method
[12] = 5 mg/kg i.v. once daily for 7 days

SMILES	Body weight change [4, 8]	response vs control in vivo [4, 9] [%]	also measured
O=C(c1ccc2c(c1)OCO2)n1c(=O)c(F)cn([C@H]2C[C@H](O)[C@@H](CO)O2)c1=O [compound 27]	+6.4 g	27.1	Number of dead mice (SLC-ddY mice): no dead mice; LD50 at 504 h ([1]; po): ≥ 2290 mg/kg; ED30 ([2]; oral once daily for 10 days, least square method, read-out: ED30): 6.4 mg/kg; ED40 ([2]; oral once daily for 10 days, least square method, read-out: ED40): 12 mg/kg; Body weight change [3, 6]: -0.5 g; T/C (average tumor weight ratio between test group and control group) [3, 7]: 30%; Body weight change [5, 10]: +4.0 g; No. of surviving mice/No. of total mice used [5, 10]: 8/8; T/C (average tumor weight ratio between test group and control group) [5, 10]: 45.3%
O=C(c1ccc([N+](=O)[O-])cc1)n1c(=O)c(F)cn([C@H]2C[C@H](O)[C@@H](CO)O2)c1=O [compound 19]	+5.9 g	41.5	
O=C(c1ccccc1I)n1c(=O)c(F)cn([C@H]2C[C@H](O)[C@@H](CO)O2)c1=O [compound 8]	+7.6 g	33.5	
COC(=O)c1ccc(C(=O)n2c(=O)c(F)cn([C@H]3C[C@H](O)[C@@H](CO)O3)c2=O)cc1 [compound 12]	+6.2 g	36.9	
O=C(Nc1ccc(C(=O)n2c(=O)c(F)cn([C@H]3C[C@H](O)[C@@H](CO)O3)c2=O)cc1)C(Cl)Cl [compound 22]	+6.5 g	41.6	
O=C(c1cccc2ccccc12)n1c(=O)c(F)cn([C@H]2C[C@H](O)[C@@H](CO)O2)c1=O [compound 9]	+6.7 g	33.5	
O=C(CBr)Nc1ccc(C(=O)n2c(=O)c(F)cn([C@H]3C[C@H](O)[C@@H](CO)O3)c2=O)cc1 [compound 26]	+2.3 g	35.3	
O=C(c1ccccc1F)n1c(=O)c(F)cn([C@H]2C[C@H](O)[C@@H](CO)O2)c1=O [compound 20]	+7.4 g	42.8	
Cc1ccccc1C(=O)n1c(=O)c(F)cn([C@H]2C[C@H](O)[C@@H](CO)O2)c1=O [compound 6]	+7.3 g	32.3	
O=C(c1ccccc1Cl)n1c(=O)c(F)cn([C@H]2C[C@H](O)[C@@H](CO)O2)c1=O [compound 7]	+6.0 g	33.1	
O=C(c1cccc(C(F)(F)F)c1)n1c(=O)c(F)cn([C@H]2C[C@H](O)[C@@H](CO)O2)c1=O [compound 25]	+5.3 g	43	
O=C(c1c(F)cccc1F)n1c(=O)c(F)cn([C@H]2C[C@H](O)[C@@H](CO)O2)c1=O [compound 29]	+7.9 g	41.3	
O=C(CCl)Nc1ccc(C(=O)n2c(=O)c(F)cn([C@H]3C[C@H](O)[C@@H](CO)O3)c2=O)cc1 [compound 5]	+4.8 g	27.5	Body weight change [3, 6]: -4.1 g; T/C (average tumor weight ratio between test group and control group) [3, 7]: 34.0%
O=c1[nH]cc(F)c(=O)[nH]1 [5-Fu, 5-fluorouracil, reference compound]			LD50 at 504 h [1, 11]: 259 mg/kg; ED30 ([2]; po): 15 mg/kg; ED40 ([2]; po): 25 mg/kg; Body weight change ([3]; 30 mg/kg orally once daily for 10 days): -3.8 g; T/C (average tumor weight ratio between test group and control group) ([3]; 30 mg/kg orally once daily for 10 days from day 6, Ehrlich): 39.7%; Body weight change ([4]; 20 mg/kg i.p. once daily for 7 days): +4.1 g; response vs control in vivo at 20 mg/kg ([4]; Mus musculus, Ehrlich, ip, 336 h, read-out: T/C (average tumor weight ratio between test group and control group)): 49.9%; Body weight change [5, 12]: +4.0 g; No. of surviving mice/No. of total mice used [5, 12]: 8/8; T/C (average tumor weight ratio between test group and control group) [5, 12]: 59.7%
O=C(c1ccc(Br)o1)n1c(=O)c(F)cn([C@H]2C[C@H](O)[C@@H](CO)O2)c1=O [compound 24]	+4.7 g	42.5	
O=C(c1ccco1)n1c(=O)c(F)cn([C@H]2C[C@H](O)[C@@H](CO)O2)c1=O [compound 15]	+7.9 g	39.1	
COc1cc(N)c(Cl)cc1C(=O)n1c(=O)c(F)cn([C@H]2C[C@H](O)[C@@H](CO)O2)c1=O [compound 10]	+7.3 g	34.2	
Cc1ccsc1C(=O)n1c(=O)c(F)cn([C@H]2C[C@H](O)[C@@H](CO)O2)c1=O [compound 16]	+6.4 g	40.7	
CC(=O)OC[C@H]1O[C@@H](n2cc(F)c(=O)n(C(=O)c3ccc4c(c3)OCO4)c2=O)C[C@@H]1OC(C)=O [compound 30]	+6.1 g	30.1	
O=Cc1ccc(C(=O)n2c(=O)c(F)cn([C@H]3C[C@H](O)[C@@H](CO)O3)c2=O)cc1 [compound 14]	+7.1 g	38.1	
O=C(CCl)Nc1cccc(C(=O)n2c(=O)c(F)cn([C@H]3C[C@H](O)[C@@H](CO)O3)c2=O)c1 [compound 4]	+4.4 g	25.2	
COc1cccc(OC)c1C(=O)n1c(=O)c(F)cn([C@H]2C[C@H](O)[C@@H](CO)O2)c1=O [compound 18]	+7.8 g	41.5	Number of dead mice (SLC-ddY mice): no dead mice
O=C(c1cc(Br)cs1)n1c(=O)c(F)cn([C@H]2C[C@H](O)[C@@H](CO)O2)c1=O [compound 23]	+5.3 g	38.8	
CN(C)c1ccc(C(=O)n2c(=O)c(F)cn([C@H]3C[C@H](O)[C@@H](CO)O3)c2=O)cc1 [compound 21]	+4.7 g	32.4	LD50 at 504 h [1, 11]: ≥ 2540 mg/kg
O=C(c1cc(O)cc(O)c1)n1c(=O)c(F)cn([C@H]2C[C@H](O)[C@@H](CO)O2)c1=O [compound 17]	+7.9 g	41	
O=C(c1ccc(F)cc1F)n1c(=O)c(F)cn([C@H]2C[C@H](O)[C@@H](CO)O2)c1=O [compound 28]	+5.9 g	21.7	
O=C(c1cccc(Cl)c1)n1c(=O)c(F)cn([C@H]2C[C@H](O)[C@@H](CO)O2)c1=O [compound 11]	+7.6 g	34.3	Number of dead mice (SLC-ddY mice): no dead mice
N#Cc1ccc(C(=O)n2c(=O)c(F)cn([C@H]3C[C@H](O)[C@@H](CO)O3)c2=O)cc1 [compound 13]	+7.2 g	36.9	Number of dead mice (SLC-ddY mice): no dead mice
